Where “and” joins values, the source holds several entries; their conditions need not be identical. Identical values can stand only once. One block for each compound: values may come before it.
Legend:
Format in all cases: cell-based
FKBP12^F36V-KRAS^G12V = molecular target: T1, FKBP12^F36V-KRAS^G12V (Homo sapiens, UniProt P01116+P62942, F37V/G12V); assay: Immunoblot of PATU-8902 FKBP12F36V-KRASG12V; KRAS-/- clone; conditions: pretreated 2 h prior to dTAGV-1 for 4 h
T1 construct: KRAS G12V (fusion partner, same polypeptide); expressed in transfected cells
Method: (§1) PATU-8902 LACZ-FKBP12^F36V and FKBP12^F36V-KRAS^G12V; KRAS^−/− cells and 293T cells were lysed with RIPA buffer supplemented with cOmplete protease inhibitors (Roche), PhosSTOP phosphatase inhibitors (Roche), and 0.1% benzonase (Novagen). Proteins were separated using NuPAGE Bolt^TM Bis–Tris gels (Thermo Fisher Scientific) and transferred to nitrocellulose membranes, which were blocked with Odyssey Blocking Buffer (LI-COR) and incubated with primary antibodies overnight. Membranes were washed three times with TBS-T, incubated with the appropriate fluorescently labeled infrared secondary antibodies, washed again three times with TBS-T, and assessed using an Odyssey CLx Imager (LI-COR)[6],[15]. EWS502 cells were lysed with Cell Lysis Buffer (Cell Signaling Technology) supplemented with cOmplete protease inhibitors (Roche). Proteins were separated using SDS-PAGE gels and transferred to PVDF membranes, which were blocked with 5% milk in TBS-T and incubated with primary antibodies overnight. Membranes were washed five times with TBS-T, incubated with the appropriate horseradish peroxidase-conjugated secondary antibodies, washed again five times with TBS-T, and imaged. The following primary antibodies were employed in this study: HA (Cell Signaling Technology #3724 and #2367, dilution at 1:1000), phospho-ERK1/2 T202/Y204 (Cell Signaling Technology #4370, dilution at 1:1000), ERK1/2 (Cell Signaling Technology #4696, dilution at 1:1000), phospho-AKT S473 (Cell Signaling Technology #4060, dilution at 1:1000), AKT (Cell Signaling Technology #2920, dilution at 1:1000), FKBP12 (Abcam #ab24373, dilution at 1:1000), GFP (Cell Signaling Technology #2555, dilution at 1:1000), FLI (Abcam #ab15289, dilution at 1:2000), NKX2-2 (Abcam #ab187375, dilution at 1:1000), GAPDH (Cell Signaling Technology #2118, dilution at 1:3000), Vinculin (Cell Signaling Technology #13901, dilution at 1:3000), β-Actin (Cell Signaling Technology #58169, dilution at 1:3000), and α-Tubulin (Cell Signaling Technology #3873, dilution at 1:5000). Species-specific fluorescently labeled infrared secondary antibodies including IRDye 680LT anti-Mouse IgG (LI-COR #926-68020, dilution at 1:5000), IRDye 800CW anti-Mouse IgG (LI-COR #926-32210, dilution at 1:5000), IRDye 680LT anti-Rabbit IgG (LI-COR #926-68021, dilution at 1:5000), and IRDye 800CW anti-Rabbit IgG (LI-COR #926-32211, dilution at 1:5000) and peroxidase-linked secondary antibodies including anti-Mouse IgG (Thermo Fisher Scientific #45000680, dilution at 1:5000) and anti-Rabbit IgG (Thermo Fisher Scientific #45000682, dilution at 1:5000) were employed as appropriate.

CDK9 = molecular target: T2, CDK9 (Homo sapiens, UniProt P50750); assay: Immunoblot, co-treatment with THAL-SNS-032 and/or dTAGV-1 in PATU-8902 LACZ-FKBP12F36V clone; conditions: co-treatment dTAGV-1 + THAL-SNS-032, 24 h
T2 construct: endogenous in cells; host or cells: PATU-8902 LACZ-FKBP12^F36V clone
Method: as §1, with “Species-specific fluorescently labeled infrared secondary antibodies including IRDye 680LT anti-Mouse IgG (LI-COR #926-68020, dilution at 1:5000), IRDye 800CW anti-Mouse IgG (LI-COR #926-32210, dilution at 1:5000), IRDye 680LT anti-Rabbit IgG (LI-COR #926-68021, dilution at 1:5000), and IRDye 800CW anti-Rabbit IgG (LI-COR #926-32211, dilution at 1:5000) and peroxidase-linked secondary antibodies including anti-Mouse IgG (Thermo Fisher Scientific #45000680, dilution at 1:5000) and anti-Rabbit IgG (Thermo Fisher Scientific #45000682, dilution at 1:5000) were employed as appropriate.” left out

FKBP12^F36V-EWS/FLI = assay: Immunoblot of EWS502 FKBP12F36V-EWS/FLI; EWS/FLI-/- cells
Method: To generate 293T^WT FKBP12^F36V-KRAS^G12V and 293T^VHL−/− FKBP12^F36V-KRAS^G12V cells, concentrated lentiviral supernatants[6] were applied to 293T^WT and 293T^VHL−/− cells[33] in the presence of 4 µg mL^−1 polybrene and transduced cell lines were selected with 2 µg mL^−1 puromycin. To generate EWS502 FKBP12^F36V-GFP cells, EWS502 cells were transduced with pLEX_305-dTAG-GFP lentiviral supernatant and selected with 1 µg mL^−1 puromycin. To generate EWS502 FKBP12^F36V-EWS/FLI; EWS/FLI^−/− cells, EWS502 cells were co-transduced with pLEX_305-dTAG-EWS/FLI and lentiCRISPR v2-Blast-sgFLI_Ex9 lentiviral supernatants. Cells were then selected with both 1 µg mL^−1 puromycin (pLEX_305-dTAG-EWS/FLI) and 5 µg mL^−1 blasticidin (lentiCRISPR v2-Blast-sgFLI_Ex9). Knockout of endogenous EWS/FLI and the expression of exogenous FKBP12^F36V-EWS/FLI were confirmed by immunoblot and pooled transduced cell populations were employed for this study. PATU-8902 LACZ-FKBP12^F36V and FKBP12^F36V-KRAS^G12V; KRAS^−/− clones were also employed in this study.
PATU-8902 LACZ-FKBP12^F36V and FKBP12^F36V-KRAS^G12V; KRAS^−/− cells and 293T cells were lysed with RIPA buffer supplemented with cOmplete protease inhibitors (Roche), PhosSTOP phosphatase inhibitors (Roche), and 0.1% benzonase (Novagen). Proteins were separated using NuPAGE Bolt^TM Bis–Tris gels (Thermo Fisher Scientific) and transferred to nitrocellulose membranes, which were blocked with Odyssey Blocking Buffer (LI-COR) and incubated with primary antibodies overnight. Membranes were washed three times with TBS-T, incubated with the appropriate fluorescently labeled infrared secondary antibodies, washed again three times with TBS-T, and assessed using an Odyssey CLx Imager (LI-COR)[6],[15]. EWS502 cells were lysed with Cell Lysis Buffer (Cell Signaling Technology) supplemented with cOmplete protease inhibitors (Roche). Proteins were separated using SDS-PAGE gels and transferred to PVDF membranes, which were blocked with 5% milk in TBS-T and incubated with primary antibodies overnight. Membranes were washed five times with TBS-T, incubated with the appropriate horseradish peroxidase-conjugated secondary antibodies, washed again five times with TBS-T, and imaged. […]

[1] = tested on: PATU-8902 FKBP12^F36V-KRAS^G12V; KRAS^-/- clone; assay: Antiproliferation, PATU-8902 FKBP12F36V-KRASG12V; KRAS-/- clone, 2D-monolayer (CellTiter-Glo)
[2] = tested on: PATU-8902 LACZ-FKBP12^F36V clone; assay: Antiproliferation, PATU-8902 LACZ-FKBP12F36V clone, 2D-monolayer (CellTiter-Glo)
Procedure, shortened: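 Viability of cells grown as 2D-adherent monolayers was determined with the CellTiter-Glo luminescent reagent (Promega). Luminescence signals were read on either an Envision 2104 plate reader (PerkinElmer) or a Fluostar Omega Reader (BMG Labtech), and the resulting data were processed and analyzed in GraphPad PRISM v8 software.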

[3] = tested on: EWS502 FKBP12^F36V-EWS/FLI; EWS/FLI^−/− cells; assay: Relative growth of EWS502 FKBP12F36V-EWS/FLI; EWS/FLI-/- cells (CellTiter-Glo); conditions: for Antiproliferation (relative growth): replicate values
Method: Cell viability was assayed in 2D-adherent or ultra-low adherent 3D-spheroids using CellTiter-Glo (Promega)[6],[15]. Luminescence was measured on an Envision 2104 plate reader (PerkinElmer) and Fluostar Omega Reader (BMG Labtech) and data was analyzed using GraphPad PRISM v8. Synergy assessments were performed using CellTiter-Glo (Promega) with the following modifications to the protocol described in the ref. [34]. In brief, EWS502 cells were plated at 1000 cells per well in 50 µL of appropriate media in 384-well white culture plates (Corning) allowed to adhere overnight, and 100 nL of compounds were added using a Janus Workstation pin tool (PerkinElmer) for 72 h. Cell viability was measured by addition of 10 µL of CellTiter-glo (Promega), followed by incubation for 15 minutes at room temperature. Luminescence was measured on an Envision 2104 plate reader (PerkinElmer) and data was analyzed using GraphPad PRISM v8.

T1 sequence (P62942+P01116 fused P62942:F37V/P01116:G12V): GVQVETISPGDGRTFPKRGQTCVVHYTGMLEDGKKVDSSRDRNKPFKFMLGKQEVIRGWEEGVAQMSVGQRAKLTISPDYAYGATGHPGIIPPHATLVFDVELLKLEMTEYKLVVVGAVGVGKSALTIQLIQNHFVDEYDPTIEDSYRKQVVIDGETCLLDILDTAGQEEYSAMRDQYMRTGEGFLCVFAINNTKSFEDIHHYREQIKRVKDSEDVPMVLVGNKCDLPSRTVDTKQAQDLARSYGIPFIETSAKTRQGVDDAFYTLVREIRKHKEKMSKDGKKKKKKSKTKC

Effect of pre-treatment on dTAGV-1-induced KRASG12V degradation (FKBP12^F36V-KRAS^G12V): rescued
SMILES: NS(=O)(=O)OC[C@@H]1C[C@@H](n2ccc3c(N[C@H]4CCc5ccccc54)ncnc32)C[C@@H]1O [MLN4924]

Effect of pre-treatment on dTAGV-1-induced KRASG12V degradation (FKBP12^F36V-KRAS^G12V): rescued
SMILES: CC(C)C[C@H](NC(=O)[C@H](CCc1ccccc1)NC(=O)CN1CCOCC1)C(=O)N[C@@H](Cc1ccccc1)C(=O)N[C@@H](CC(C)C)C(=O)[C@@]1(C)CO1 [carfilzomib]

Degradation of both LACZ-FKBP12F36V and CDK9 on co-treatment (CDK9): pronounced degradation
SMILES: CC(C)(C)c1cnc(CSc2cnc(NC(=O)C3CCN(CC(=O)NCCOCCOCCOCCNc4cccc5c4C(=O)N(C4CCC(=O)NC4=O)C5=O)CC3)s2)o1 (stereo not drawn) [THAL-SNS-032]

SMILES: CC[C@H](C(=O)N1CCCC[C@H]1C(=O)O[C@H](CCc1ccc(OC)c(OC)c1)c1ccccc1OCC(=O)NCCOCCOCCOCC(=O)N[C@H](C(=O)N1C[C@H](O)C[C@H]1C(=O)N[C@@H](C)c1ccc(-c2scnc2C)cc1)C(C)(C)C)c1cc(OC)c(OC)c(OC)c1 [dTAG-63]
FKBP12F36V-EWS/FLI degradation, immunoblot (FKBP12^F36V-EWS/FLI; EWS502 FKBP12F36V-EWS/FLI, EWS/FLI-/- cells): marginal degradation
NKX2-2 protein levels, immunoblot (FKBP12^F36V-EWS/FLI; relative to dTAGV-1): limited changes
DMSO-normalized antiproliferation ([1]; log10[compound] (M) -4.69897): 1.902 and 1.7836 and 2.592 and 1.417
DMSO-normalized antiproliferation ([1]; log10[compound] (M) -5.19897): 1.019 and 0.7215 and 1.043 and 0.8704
DMSO-normalized antiproliferation ([1]; log10[compound] (M) -5.69897): 18.9261 and 16.9894 and 19.5961 and 18.1242
DMSO-normalized antiproliferation ([1]; log10[compound] (M) -6.19897): 26.0652 and 23.4484 and 26.4223 and 22.5834
DMSO-normalized antiproliferation ([1]; log10[compound] (M) -6.69897): 29.8671 and 30.9365 and 33.7587 and 28.015
DMSO-normalized antiproliferation ([1]; log10[compound] (M) -7.19897): 63.0328 and 57.9113 and 61.3608 and 60.3114
DMSO-normalized antiproliferation ([1]; log10[compound] (M) -7.69897): 91.5315 and 97.3637 and 98.717 and 90.5671
DMSO-normalized antiproliferation ([1]; log10[compound] (M) -8.19897): 103.715 and 106.791 and 102.663 and 104
DMSO-normalized antiproliferation ([1]; log10[compound] (M) -8.69897): 99.9165 and 93.5571 and 104.512 and 109.434
DMSO-normalized antiproliferation ([1]; log10[compound] (M) -9.19897): 108.333 and 105.196 and 111.04 and 104.691
DMSO-normalized antiproliferation ([2]; log10[compound] (M) -4.69897): 13.2737 and 12.6329 and 14.1104 and 10.912
DMSO-normalized antiproliferation ([2]; log10[compound] (M) -5.19897): 7.875 and 6.856 and 8.909 and 8.0101
DMSO-normalized antiproliferation ([2]; log10[compound] (M) -5.69897): 78.4433 and 69.3624 and 75.8082 and 79.7492
DMSO-normalized antiproliferation ([2]; log10[compound] (M) -6.19897): 113.01 and 109.862 and 96.0186 and 107.676
DMSO-normalized antiproliferation ([2]; log10[compound] (M) -6.69897): 108.532 and 100.339 and 100.126 and 107.64
DMSO-normalized antiproliferation ([2]; log10[compound] (M) -7.19897): 112.463 and 103.538 and 107.565 and 99.0951
DMSO-normalized antiproliferation ([2]; log10[compound] (M) -7.69897): 105.646 and 110.739 and 108.339 and 103.433
DMSO-normalized antiproliferation ([2]; log10[compound] (M) -8.19897): 104.397 and 99.4398 and 102.394 and 104.585
DMSO-normalized antiproliferation ([2]; log10[compound] (M) -8.69897): 100.586 and 98.6181 and 103.288 and 91.8912
DMSO-normalized antiproliferation ([2]; log10[compound] (M) -9.19897): 97.4681 and 95.2333 and 95.4033 and 78.5397
Antiproliferation (relative growth) ([3]; Time 0 days): 1.033 and 1 and 1.041 and 1.01 and 1.018 and 1.028 and 1.023 and 0.847
Antiproliferation (relative growth) ([3]; Time 3 days): 5.323 and 5.646 and 6.274 and 5.9 and 5.4745 and 5.572 and 6.329 and 5.374
Antiproliferation (relative growth) ([3]; Time 5 days): 8.718 and 8.673 and 8.208 and 9.16 and 8.872 and 9.224 and 8.694 and 9.906
Antiproliferation (relative growth) ([3]; Time 7 days): 8.087 and 8.192 and 8.728 and 8.891 and 8.43 and 7.949 and 9.536 and 9.221
Antiproliferative effects upon EWS/FLI degradation ([3]; longer time-points): modest antiproliferative effects
